Columns and labels:
[1] = molecular target: MAPK14 (human) (UniProt Q16539); assay: Inhibition of LPS-Stimulated TNF-alpha Production in Human Whole Blood
[2] = molecular target: MAPK14 (UniProt Q16539); assay: Inhibition of MAPK14 Kinase Activity
MAPK14, sequence (Q16539 whole entry, looked up): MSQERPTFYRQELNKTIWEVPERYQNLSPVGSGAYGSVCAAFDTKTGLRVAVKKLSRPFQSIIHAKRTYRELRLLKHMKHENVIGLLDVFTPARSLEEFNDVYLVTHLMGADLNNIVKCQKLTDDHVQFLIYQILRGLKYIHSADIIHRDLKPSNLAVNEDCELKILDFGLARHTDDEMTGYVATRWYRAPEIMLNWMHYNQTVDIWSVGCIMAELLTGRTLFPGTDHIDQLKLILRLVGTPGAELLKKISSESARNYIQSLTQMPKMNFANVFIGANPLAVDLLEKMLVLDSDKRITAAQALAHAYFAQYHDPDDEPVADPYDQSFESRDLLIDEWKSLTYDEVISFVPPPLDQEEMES

MAPK14 (human), sequence (Q16539 whole entry, looked up): as above

SMILES | IC50 [1] [nM] | IC50 [2] [nM]
COc1cc2ncnc(Nc3cc(NC(=O)c4cccc(N5CCOCC5)c4)ccc3C)c2cc1OCCN(C)C | 6900 | 35
COc1cc2ncnc(Nc3cccc(NC(=O)c4cccc(N(C)C)c4)c3)c2cc1OC | > 50000 | 
COc1cc2ncnc(Nc3cccc(NC(=O)c4ccccc4)c3F)c2cc1OC | > 50000 | 
COc1cc2ncnc(Nc3cc(NC(=O)c4cccc(N5CCOCC5)c4)ccc3C)c2cc1OCCN1CCCCC1 | 4600 | 56
COc1cc2ncnc(Nc3cc(NC(=O)c4ccccc4)ccc3C)c2cc1OC |  | 78
CCCN1CCC(Oc2nccc(Nc3cc(NC(=O)c4ccnc(N5CCOCC5)c4)ccc3C)n2)CC1 |  | 55
COc1cc2ncnc(Nc3cc(NC(=O)c4cccc(N5CCOCC5)c4)ccc3C)c2cc1OCCN1CCCC1 |  | 39
Cc1ccc(NC(=O)c2ccnc(N3CCOCC3)c2)cc1Nc1ccnc(OCC2CCCN(C)C2)n1 (stereo not given) |  | 33
COc1cc2ncnc(Nc3cc(NC(=O)c4ccccc4)c(Cl)cc3F)c2cc1OC | > 50000 | 
Cc1ccc(NC(=O)c2ccnc(N3CCOCC3)c2)cc1Nc1cc(NCCCN2CCCN(C)CC2)ncn1 | > 50000 | 1220
Cc1ccc(NC(=O)c2ccnc(N3CCOCC3)c2)cc1Nc1ccnc(NCCCN2CCOCC2)n1 | > 50000 | 98
COc1cc2ncnc(Nc3ccc(Cl)c(NC(=O)c4ccccc4)c3)c2cc1OC | > 50000 | 
C=CCN(C)c1nccc(Nc2cc(NC(=O)c3ccnc(N4CCOCC4)c3)ccc2C)n1 | > 50000 | 
Cc1ccc(NC(=O)c2ccnc(N3CCOCC3)c2)cc1Nc1ccnc(OCCCN(C)C)n1 |  | 37
COc1cc2ncnc(Nc3ccc(C)c(NC(=O)c4ccccc4)c3)c2cc1OC | > 50000 | 
CCCN1CCC(Oc2nccc(Nc3cc(NC(=O)c4cccc(N5CCOCC5)c4)ccc3C)n2)CC1 |  | 49

SMILES | IC50 [1] [nM] | IC50 [2] [nM]
COc1cc2ncnc(Nc3cc(NC(=O)c4cccc(N5CCOCC5)c4)ccc3C)c2cc1OCCN1CCOCC1 | 7800 | 24
Cc1ccc(NC(=O)c2ccnc(N3CCOCC3)c2)cc1Nc1ccnc(OCC(C)(C)CN(C)C)n1 |  | 79
Cc1ccc(NC(=O)c2ccnc(N3CCOCC3)c2)cc1Nc1ccnc(Cl)n1 |  | 19
COc1cc2ncnc(Nc3cccc(Cl)c3)c2cc1OC | > 50000 | 
COc1cc2ncnc(Nc3cc(NC(=O)c4cccc(N(C)C)c4)ccc3Cl)c2cc1OC | > 50000 | 47
COc1cc2ncnc(Nc3cc(NC(=O)c4ccccc4)ccc3Cl)c2cc1OC | > 50000 | 88
COc1cc2ncnc(Nc3ccc(Cl)c(NC(=O)c4cccc(N(C)C)c4)c3)c2cc1OC | > 50000 | 
Cc1ccc(NC(=O)c2ccnc(N3CCOCC3)c2)cc1Nc1ccnc(OC2CCN(C)CC2)n1 |  | 45
Cc1ccc(NC(=O)c2ccnc(N3CCOCC3)c2)cc1Nc1ccnc(NCCCN2CCCC2)n1 |  | 58
Cc1ccc(NC(=O)c2ccnc(N3CCOCC3)c2)cc1Nc1cc(Cl)ncn1 | > 50000 | 
COc1cc2ncnc(Nc3cccc(NC(=O)c4ccccc4)c3)c2cc1OC | > 50000 | 
COc1cc2ncnc(Nc3cc(NC(=O)c4ccccc4)c(F)cc3F)c2cc1OC | > 50000 | 54
COc1cc2ncnc(Nc3cc(NC(=O)c4cccc(N5CCOCC5)c4)ccc3C)c2cc1OCCN(C(C)C)C(C)C | 3500 | 52
Cc1ccc(NC(=O)c2ccnc(N3CCOCC3)c2)cc1Nc1cc(NCCCN2CCCC2)ncn1 | > 50000 | 
CSc1nccc(Nc2cc(NC(=O)c3cc(F)cc(N4CCOCC4)c3)ccc2C)n1 |  | 14
